Patent US20230348450A1, “CARBOXYLIC ACID-CONTAINING COMPOUNDS AS MODULATORS OF BIS-PHOSPHOGLYCERATE MUTASE FOR THE TREATMENT OF SICKLE CELL DISEASE” (Genzyme Corporation, priority 2020, published 2023)

Key:
[1] = target: human Bisphosphoglycerate mutase (hBPGM) (Homo sapiens (Human), UniProt P07738); assay: BPGM Phosphatase Assay; format: biochemical; details: Table 6 additional results; read-out: huBPGM: phosphatase Enzyme EC50
Protocol: Solutions of the test compounds were then added to the plate and the DMSO content was normalized across the plate. The plate was incubated at RT for 15 min. Next, the substrate 2,3-BPG (5 μL) was added to all the wells, and the plate was sealed and incubated for 24 hr at RT. After incubation, BIOMOL green dye (40 μL) was added to all the wells, the plate was shaken to mix, and the plate was incubated at RT for 20-30 min.

[2] = target: hBPGM (Homo sapiens (Human), UniProt P07738); assay: BPGM Synthase Assay; format: biochemical; details: Table 6 additional results; read-out: huBPGM: synthase Enzyme IC50
hBPGM, sequence (P07738 whole entry, looked up): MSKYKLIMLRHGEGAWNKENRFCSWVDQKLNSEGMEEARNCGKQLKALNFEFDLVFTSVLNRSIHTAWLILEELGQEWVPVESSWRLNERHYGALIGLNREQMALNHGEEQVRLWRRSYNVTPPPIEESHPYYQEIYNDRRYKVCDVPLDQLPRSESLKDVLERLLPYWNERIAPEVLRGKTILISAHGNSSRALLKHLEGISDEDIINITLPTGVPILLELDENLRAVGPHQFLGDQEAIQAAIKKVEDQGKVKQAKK
Method in brief: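 BPGM (5 nM) with GAPDH (0.4 U/mL) was incubated with compound for 30 min at RT in pH 7.4 Tris buffer with 3.23 mM KH2PO4 and 1 mM DTT. Reaction ran 60 min with NAD, 3PG and GAP (substrate solution 2 mM, 20 μM and 800 μM). After koningic acid stop, NADH fluorescence was read, then resorufin from diaphorase/resazurin coupling.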

human Bisphosphoglycerate mutase (hBPGM), sequence (P07738 whole entry): as the sequence (P07738 whole entry, looked up) above

Compound | EC50 [1] | IC50 [2]
Cc1nc(COc2cccc(C#N)c2)sc1-c1cccc(-c2ccc(C(=O)O)c(O)c2)c1 [Example 108] | 500 nM | 3200 nM
Cc1nc(COC(=O)N(C)CCN(C)C)sc1-c1csc(-c2cc(O)c(C(=O)O)cc2F)n1 [Example 113] | 170 nM | 130 nM
Cc1nc(CNC(=O)OCCN(C)C)sc1-c1csc(-c2cc(O)c(C(=O)O)cc2F)n1 [Example 114] | 170 nM | 150 nM
Cc1nc(CNC(=O)CCN(C)C)sc1-c1csc(-c2cc(O)c(C(=O)O)cc2F)n1 [Example 115] | 180 nM | 670 nM
COC(=O)NCc1nc(C)c(-c2csc(-c3cc(O)c(CC(=O)O)cc3F)n2)s1 [Example 116] | > 25000 nM | 6900 nM
Cc1nc(CNC(=O)C(C)CN(C)C)sc1-c1csc(-c2cc(O)c(C(=O)O)cc2F)n1 (stereo not drawn) [Example 117] | 8700 nM | 170 nM
Cc1nc(COC(=O)N2CCN(C)CC2)sc1-c1csc(-c2cc(O)c(C(=O)O)cc2F)n1 [Example 118] | 130 nM | 180 nM
COC(=O)NCc1nc(C)c(-c2csc(-c3cc(O)c(C(=O)NCC(=O)NCC(=O)O)cc3F)n2)s1 [Example 119] | 1800 nM | 340 nM
Cc1nc(CNC(=O)CN(C)C)sc1-c1csc(-c2cc(O)c(C(=O)O)cc2F)n1 [Example 120] | > 25000 nM | 500 nM
COCCOCCOCCOCCOCC(=O)NCc1nc(C)c(-c2csc(-c3ccc(C(=O)O)c(O)c3)n2)s1 [Example 121] | 3200 nM | 1800 nM
Cc1nc(CNC(=O)C(C)(C)N(C)C)sc1-c1csc(-c2cc(O)c(C(=O)O)cc2F)n1 [Example 123] | 9700 nM | 530 nM
Cc1nc(CNC(=O)C(C)(C)C)sc1-c1csc(-c2cc(O)c(C(=O)O)cc2F)n1 [Example 124] | 50 nM | 49 nM
Cc1nc(CNC(=O)C2CCNCC2)sc1-c1csc(-c2cc(O)c(C(=O)O)cc2F)n1 [Example 125] | 340 nM | 410 nM
Cc1nc(CNC(=O)C2CCN(C)CC2)sc1-c1csc(-c2cc(O)c(C(=O)O)cc2F)n1 [Example 126] | 240 nM | 460 nM
Cc1nc(CNC(=O)C2CCN(C)C2)sc1-c1csc(-c2cc(O)c(C(=O)O)cc2F)n1 (stereo not drawn) [Example 127] | 420 nM | 490 nM
Cc1nc(COc2ccccn2)sc1-c1cccc(-c2ccc(C(=O)O)c(O)c2)n1 [Example 128] | 79 nM | 190 nM
Cc1nc(COc2ncccn2)sc1-c1cccc(-c2cc(O)c(C(=O)O)cc2F)n1 [Example 129] | 40 nM | 40 nM
COC(=O)NCc1nc(C)c(-c2csc(-c3cc(O)c(C(=O)O)cc3C)n2)s1 [Example 130] | 40 nM | 70 nM
Cc1nc(COc2cccnn2)sc1-c1csc(-c2cc(O)c(C(=O)O)cc2F)n1 [Example 131] | 40 nM | 42 nM
Cc1cnc(OCc2nc(C)c(-c3csc(-c4cc(O)c(C(=O)O)cc4F)n3)s2)nc1 [Example 132] | 50 nM | 45 nM
Cc1ccnc(OCc2nc(C)c(-c3csc(-c4cc(O)c(C(=O)O)cc4F)n3)s2)n1 [Example 133] | 80 nM | 50 nM
Cc1nc(C)c(-c2nsc(-c3cc(O)c(C(=O)O)c(F)c3F)n2)s1 [Example 134] | 340 nM | 1000 nM
COC(=O)NCc1nc(C)c(-c2csc(-c3cc(O)c(C(=O)O)c(F)c3F)n2)s1 [Example 135] | 70 nM | 40 nM
Cc1nc(CNC(=O)OCC(F)(F)F)sc1-c1csc(-c2cc(O)c(C(=O)O)cc2F)n1 [Example 136] | 90 nM | 310 nM

Compound | EC50 [1] | IC50 [2]
Cc1nc(COc2ncccn2)sc1-c1csc(-c2cc(O)c(C(=O)O)cc2F)n1 [Example 137] | 20 nM | 28 nM
Cc1nc(CNC(=O)C(C)(C)C)sc1-c1csc(-c2cc(O)c(C(=O)O)cc2F)c1 [Example 139] | 90 nM | 84 nM
Cc1nc(COc2cnccn2)sc1-c1csc(-c2cc(O)c(C(=O)O)cc2F)n1 [Example 140] | 30 nM | 95 nM
Cc1nc(C(C)NC(=O)C(C)(C)C)sc1-c1csc(-c2cc(O)c(C(=O)O)cc2F)n1 (stereo not drawn) [Example 141] | 70 nM | 130 nM
Cc1nc(COc2ncccn2)sc1-c1cccc(-c2ccc(C(=O)O)c(O)c2)c1 [Example 142] | 130 nM | 190 nM
Cc1nc(Cc2cccnc2)sc1-c1csc(-c2cc(O)c(C(=O)O)cc2F)c1 [Example 143] | 80 nM | 200 nM
CC(=O)Nc1cccc(OCc2nc(C)c(-c3csc(-c4cc(O)c(C(=O)O)cc4F)n3)s2)n1 [Example 145] | 50 nM | 250 nM
Cc1nc(COc2ccccn2)sc1-c1csc(-c2cc(O)c(C(=O)O)cc2F)c1 [Example 146] | 50 nM | 460 nM
Cc1nc(CNCC(C)(C)C)sc1-c1csc(-c2cc(O)c(C(=O)O)cc2F)n1 [Example 147] | 50 nM | 610 nM
Cc1nc(CNC(=O)c2cccnn2)sc1-c1cccc(-c2ccc(C(=O)O)c(O)c2)n1 [Example 148] | 280 nM | 250 nM
Cc1nc(CNc2ncccn2)sc1-c1csc(-c2cc(O)c(C(=O)O)cc2F)n1 [Example 149] | 70 nM | 30 nM
Cc1nc(C(C)NC(=O)c2cccnn2)sc1-c1csc(-c2cc(O)c(C(=O)O)cc2F)n1 (stereo not drawn) [Example 151] | 70 nM | 65 nM
Cc1nc(CNC(=O)c2ccon2)sc1-c1csc(-c2cc(O)c(C(=O)O)cc2F)n1 [Example 152] | 40 nM | 67 nM
Cc1nc(CNC(=O)c2cccnn2)sc1-c1cccc(-c2cc(O)c(C(=O)O)cc2F)n1 [Example 153] | 70 nM | 99 nM
Cc1nc(COC(=O)N2CCCC2)sc1-c1csc(-c2cc(O)c(C(=O)O)cc2F)n1 [Example 154] | 40 nM | 170 nM
COC(=O)NCc1nc(C)c(-c2ccnc(-c3cc(O)c(C(=O)O)cc3F)n2)s1 [Example 155] | > 25000 nM | 310 nM
Cc1nc(COCC(N)=O)sc1-c1csc(-c2cc(O)c(C(=O)O)cc2F)n1 [Example 156] | 1500 nM | 350 nM
Cc1nc(COC(=O)N(C)C)sc1-c1csc(-c2cc(O)c(C(=O)O)cc2F)n1 [Example 158] | > 25000 nM | 44 nM
Cc1nc(Cc2ccn(C)n2)sc1-c1csc(-c2cc(O)c(C(=O)O)cc2F)n1 [Example 160] | 130 nM | 65 nM
COC(=O)NCc1nc(C)c(-c2csc(-c3cc(O)c(C(=O)O)cc3F)c2)s1 [Example 161] | 79 nM | 59 nM
Cc1nc(Cc2ccccc2)sc1-c1cccc(-c2cc(O)c(C(=O)O)cc2F)n1 [Example 162] | 60 nM | 140 nM
Cc1nc(COc2ccccn2)sc1-c1csc(-c2cc(O)c(C(=O)O)cc2F)n1 [Example 163] | 60 nM | 170 nM
Cc1nc(COc2ccccn2)sc1-c1cccc(-c2cc(O)c(C(=O)O)cc2F)n1 [Example 164] | 70 nM | 170 nM
Cc1nc(Cc2ccccc2)sc1-c1csc(-c2cc(O)c(C(=O)O)cc2F)n1 [Example 165] | 40 nM | 240 nM
